From patent US8110675B2, “TP expression-inhibiting compound and siRNA sequence thereof” (Chang Gung University, priority 2009, dated 2012)

Test system: NPC-TW02 and NPC-TW02/TP cells
Assay: cytotoxicity assay with 5′-DFUR, apoptosis by annexin V flow cytometry
Type: cell-based
Conditions: TP over-expression, 72 hours
Procedure: Refer to FIG. 1A and FIG. 1B. A cell line of nasopharyngeal cancer NPC-TW02/TP is established to stably express exogenous TP. First, the TP-expression carrier pcDNA3.1-PT is transfected to the cell line. Next, the cell line is screened and then cultivated in a culture solution having 500 μg/ml G418. Next is performed a cytotoxicity assay, wherein NPC-TW02 and NPC-TW02/TP are respectively processed with 5′-DFUR (Sigma-Aldrich, St. Louis, Mo., USA). Next, the cell lines are further cultivated for 72 hours. Next, the cell membranes are everted to expose phosphatidylserine. Then, phosphatidylserine is analyzed with the Vybrant® Apoptosis Assay Kit #2 (a product of Invitrogen).
Firstly, 2×10^5 cells are taken out and washed with PBS. Next, a buffer solution (10 mM HEPES, 140 mM NaCl, 2.5 mM CaCl2, pH 7.4) is used to adjust the solution to have a cell concentration of 2×10^6/mL. Next, 5 μl Alexa Fluor® 488 annexin V is added into 100 μl cell suspension, and then the cell suspension reacts at an ambient temperature for 15 minutes. Next, the cell specimens (10000 events) are analyzed with a flow cytometer (a product of Becton Dickinson), as shown in FIG. 3. […] Then, phosphatidylserine is analyzed with the Vybrant® Apoptosis Assay Kit #2 (a product of Invitrogen).

## C[C@H]1O[C@@H](n2cc(F)c(=O)[nH]c2=O)[C@H](O)[C@@H]1O [5′-DFUR, 5-fluoro-5′-deoxyuridine]
  sensitivity of TP over-expressing nasopharyngeal cancer cells / induction of apoptosis: can induce the apoptosis of cancer cells
